Experimental data as given in ChEMBL document CHEMBL1155122, “Design and optimization of aniline-substituted tetrahydroquinoline C5a receptor antagonists” (Bioorg Med Chem Lett, 2008).

Assays:
[1] = target: T1, C5a anaphylatoxin chemotactic receptor 1 (Homo sapiens, UniProt P21730); assay: Antagonist activity at human recombinant C5a receptor in U937 cells assessed as inhibition of C5a-induced calcium mobilization by FLIPR assay; assay type: functional, cell-based, U-937
T1 sequence (P21730 whole entry): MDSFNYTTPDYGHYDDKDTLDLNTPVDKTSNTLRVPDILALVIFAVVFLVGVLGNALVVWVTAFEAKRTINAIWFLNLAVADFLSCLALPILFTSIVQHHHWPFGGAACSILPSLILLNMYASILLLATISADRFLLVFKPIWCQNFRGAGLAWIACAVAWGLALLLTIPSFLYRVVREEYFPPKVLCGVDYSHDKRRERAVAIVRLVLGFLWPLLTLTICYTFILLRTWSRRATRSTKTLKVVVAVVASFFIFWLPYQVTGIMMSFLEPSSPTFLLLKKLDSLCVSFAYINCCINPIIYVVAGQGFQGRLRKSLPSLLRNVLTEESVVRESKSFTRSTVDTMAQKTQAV

[2] = Volume of distribution at steady state in rat at 2 mg/kg, iv; assay type: ADME, organism-based; design: dose 2 mg/kg, route intravenous; conditions: in vivo, read-out: Vdss
[3] = Half life in rat at 2 mg/kg, iv; assay type: ADME, organism-based; design: dose 2 mg/kg, route intravenous; conditions: in vivo
[4] = test system: Rattus norvegicus; assay: Cmax in rat at 10 mg/kg, po; assay type: ADME, organism-based; design: dose 10 mg/kg, route oral; conditions: in vivo
[5] = Oral bioavailability in rat at 10 mg/kg; assay type: ADME, organism-based; conditions: in vivo
[6] = Clearance in rat at 2 mg/kg, iv; assay type: ADME, organism-based; design: dose 2 mg/kg, route intravenous; conditions: in vivo
[7] = test system: Rattus norvegicus; assay: AUC in rat at 10 mg/kg, po; assay type: ADME, organism-based, Plasma; design: dose 10 mg/kg, route oral; conditions: in vivo
[8] = Half life in rat at 10 mg/kg, po; assay type: ADME, organism-based; design: dose 10 mg/kg, route oral; conditions: in vivo
[9] = target: T1, C5a anaphylatoxin chemotactic receptor 1; assay: Displacement of [125I]C5a from human recombinant C5a receptor in U937 cells; assay type: cell-based, U-937

Row | SMILES | IC50 [1] [nM] | also measured
1 | CCc1cccc(CC)c1-c1cc(OC)c2c(n1)CCCC2Nc1ccccc1C(N)=O (stereo unspecified) | > 10000 | –
2 | CCc1cccc(CC)c1-c1cc(OC)c2c(n1)CCCC2Nc1ccccc1C(C)=O (stereo unspecified) | > 10000 | –
3 | CCc1cccc(CC)c1-c1cc(OC)c2c(n1)CCCC2N(C)c1cc(Cl)ccc1C (racemic) | 2600 | –
4 | CCc1cccc(CC)c1-c1cc(OC)c2c(n1)CCCC2Nc1cc(F)ccc1C (stereo unspecified) | 1400 | –
5 | CCc1cccc(CC)c1-c1cc(OC)c2c(n1)CCCC2Nc1ccccc1CO (stereo unspecified) | 120 | –
6 | CCc1cccc(CC)c1-c1cc(OC)c2c(n1)CCCC2Nc1cc(-c2ccccc2)ccc1C (stereo unspecified) | 2500 | –
7 | COc1cc(-c2c(C)cccc2C)nc2c1C(N(C)c1c(C)cccc1C)CCC2 (racemic) | > 10000 | –
8 | COc1cccc(N(C)C2CCCc3nc(-c4c(C)cccc4C)cc(OC)c32)c1C (racemic) | > 10000 | –
9 | CCc1cccc(CC)c1-c1cc(OC)c2c(n1)CCCC2Nc1ccccc1C(=O)OC (stereo unspecified) | > 10000 | –
10 | CCc1cccc(CC)c1-c1cc(OC)c2c(n1)CCCC2Nc1cc(C)ccc1C (stereo unspecified) | 430 | –
11 | CCc1cccc(CC)c1-c1cc(OC)c2c(n1)CCCC2Nc1cc(OC)ccc1C (stereo unspecified) | 140 | Vd [2]: 4.5 L/kg; half-life [3]: 6.3 h; Cmax [4]: 290 ng/mL; bioavailability [5]: 21%; clearance [6]: 21 mL/min/kg; AUC [7]: 700 ng·h/mL; half-life [8]: 5.3 h
12 | CCc1cccc(CC)c1-c1cc(OC)c2c(n1)CCCC2Nc1cc(OC)ccc1-c1ccccc1 (stereo unspecified) | > 10000 | –
13 | CCc1cccc(CC)c1-c1cc(OC)c2c(n1)CCCC2Nc1cc(O)ccc1C (stereo unspecified) | > 10000 | –
14 | CCc1cccc(CC)c1-c1cc(OC)c2c(n1)CCCC2N(C)c1cc(OC)ccc1OC (racemic) | 2600 | –
15 | CCc1cccc(CC)c1-c1cc(OC)c2c(n1)CCCC2Nc1cc(CO)ccc1C (stereo unspecified) | > 10000 | –
16 | CCc1cccc(CC)c1-c1cc(OC)c2c(n1)CCCC2N(C)c1cc(-c2ccccc2)ccc1C (racemic) | > 10000 | –
17 | CCc1cccc(CC)c1-c1cc(OC)c2c(n1)CCCC2Nc1ccccc1CCO (stereo unspecified) | – | Ki [9]: 21 nM
18 | CCc1cccc(CC)c1-c1cc(OC(C)C)c2c(n1)CCCC2Nc1ccccc1CCO (racemic) | 7 | –
19 | CCc1cccc(CC)c1-c1cc(OC)c2c(n1)CCCC2Nc1ccc(OC)cc1C (stereo unspecified) | 2400 | –
